Reference: PMC6348444, “New Water-Soluble Copper(II) Complexes with Morpholine–Thiosemicarbazone Hybrids: Insights into the Anticancer and Antibacterial Mode of Action” (Journal of Medicinal Chemistry, 2018)

Legend:
[1] = n-octanol/water distribution coefficient, shake-flask; format: physicochemical; conditions: n-octanol/buffered aqueous solution, pH 7.40, UV-vis
Procedure: The titrations were carried out under a nitrogen atmosphere.

A2780 cells = assay: Cellular accumulation of Cu by ICP-MS; format: cell-based, human; conditions: 24 h exposure, 1 μM
Source text: The ability of anticancer drugs to penetrate biological membranes, tissues, and barriers underlies their biological, pharmacokinetic, and metabolic properties. These properties can be predicted by calculating physicochemical characteristics of drug candidates using molecular descriptors.[30] […] The results are shown in Table S7 in the Supporting Information. On the basis of the calculated physicochemical parameters, we determined if novel compounds belonged to the drug-like chemical space, which is commonly defined by the well-known Lipinski rule, or to the known drug space (KDS), which includes all small compounds in medical use.[31] […] Following the calculations, we determined the lipophilicity of all compounds experimentally (log D7.4, Tables 1 and 2). It is known that cancer cells accumulate hydrophilic compounds to a smaller extent relative to hydrophobic compounds, thereby affecting their activity. […] As expected, proligands were more lipophilic than the corresponding Cu(II) species, which are positively charged at physiological pH (Figure 3b). […] The lipophilicity of 2–5 increased in the following order 4 < 2 < 3 < 5, and correlated well with their cytotoxicity in cancer cells, with the exception of 3. Subsequently, we determined the total cellular accumulation of Cu in A2780 cells by ICP–MS upon 24 h exposure to 1–6 in comparison with CuCl2 (Table 2). […] The accumulation increased in the order 6 < 1 < 3 < 4 < 2 < 5.
Cellular accumulation of 1–6 was determined in A2780 cells. Cells were seeded into Cellstar 6-well plates (Greiner Bio-one) at a density of 60 × 10^4 cells/well (2 mL per well). After the cells were allowed to resume exponential growth for 24 h, they were exposed to 1–6 at 1 μM for 24 h at 37 °C. The cells were washed twice with 1 mL of PBS and lysed with RIPA lysis buffer for 5–10 min at 4 °C. The cell lysates were scraped from the wells and transferred to separate 1.5 mL microtubes. The supernatant was then collected after centrifugation (13 000 rpm, 4 °C for 15 min) and total protein content of each sample was quantified via Bradford’s assay. Cell lysates were transferred to 2 mL glass vials and then digested with ultrapure 65% HNO3 at 100 °C for 24 h. The resulting solution was diluted to 1 mL (2–4% v/v HNO3) with ultrapure Milli-Q water. Cu content of each sample was quantified by ICP–MS. In was used as an internal standard. Cu and In were measured at m/z 64 and m/z 115, respectively. Metal standards for calibration curve (0, 0.5, 1, 2, 5, 10, 20, and 40 ppb) were freshly prepared before each measurement. All readings were made in triplicates in He mode. For temperature-dependent cellular accumulation experiments, A2780 cells were seeded into 35 n 10 mm tissue culture plates at a density of 60 0 10^4 cells/plate. After the cells were allowed to resume exponential growth for 24 h, they were exposed to 2 at 3 μM for 10, 30, 60, and 120 min at 37 and 4 °C. The subsequent analysis was performed as described above. For energy-dependent experiments, A2780 cells were seeded into 35 5 10 mm tissue culture plates at a density of 1 0 10^6 cells/plate. After the cells were allowed to resume exponential growth for 24 h, they were preincubated with oligomycin (5 μM) for 1 or 4 h or with cycloheximide (100 μM) for 4 h and further co-incubated with 3 μM of 2 at 37 °C. To induce total starvation, after the cells were allowed to resume exponential growth for 24 h, RPMI media was replaced with HBSS, and cells were preincubated in HBSS for 1 h and further incubated with 3 μM of 2 for 1 h at 37 °C. The subsequent analysis was performed as described above.

[2] = Cyclic voltammetry, redox potentials; format: physicochemical; conditions: first reduction step
Procedure: To assess the redox properties of 1-6, detailed electrochemical and spectroscopic studies in various solvents were performed using cyclic voltammetry as well as EPR-spectroelectrochemistry. Additionally, the UV-vis spectra of 1-5 were measured (Figure S8). […] The second reduction step occurred at -1.8 V versus Fc^+/Fc (-1.16 V vs NHE) and was less reversible, indicating a ligand-based reduction. […] In aqueous solutions, the reduction potentials shifted to the less negative values, and reduction was less reversible as shown for 2 in Figure S10. […] Cyclic voltammetric experiments were performed as described previously.[46] The cyclic voltammograms were measured in the cathodic region in different solvents (DMSO, methanol, DMSO/H2O). The analytical purity grade LiClO4 (Sigma-Aldrich) and distilled and deionized water were used for preparation of 1 mM aqueous solutions of the investigated complexes 1-6. EPR spectra were recorded with the EMX plus. In situ UV-vis-NIR spectroelectrochemical measurements were performed on a spectrometer (Avantes, Model AvaSpec-2048x14-USB2 in the spectroelectrochemical cell kit ([…]3)) with the Pt-microstructured honeycomb working electrode, purchased from Pine Research Instrumentation. The cell was positioned in the CUV-UV Cuvette Holder (Ocean Optics) connected to the diode-array UV-vis-NIR spectrometer by optical fibers. UV-vis-NIR spectra were processed using the AvaSoft 7.7 software package. Halogen and deuterium lamps were used as light sources (Avantes, Model AvaLight-DH-S-BAL). The in situ EPR spectroelectrochemical experiments were carried out under an argon atmosphere in the EPR flat cell equipped with a large platinum mesh working electrode. The freshly prepared solutions were carefully purged with argon and the electrolytic cell was polarized in the galvanostatic mode directly in the cylindrical EPR cavity TM-110 (ER 4103 TM), and the EPR spectra were measured in situ.

A2780cisR cells = assay: MTT cytotoxicity assay, A2780cisR; format: cell-based, human; conditions: for RF (resistance factor): IC50(A2780cisR)/IC50(A2780); for IC50: MTT assay, 72 h exposure, cisplatin-resistant A2780cisR, read-out: IC50 A2780cis
[3] = tested on: Pseudomonas aeruginosa PAO1 CECT 4122 (ATCC 15692); assay: MIC microdilution, P. aeruginosa; format: cell-based; conditions: planktonic cells; for P. aeruginosa MIC50: growth inhibited at 50%; for P. aeruginosa MIC100: lowest concentration completely inhibiting growth
Procedure: Wild-type P. aeruginosa PAO1 strain CECT 4122 (ATCC 15692) and S. aureus CECT 86 (ATCC 12600) were obtained from the Spanish Type Culture Collection (CECT). All strains were routinely cultivated in TSB medium (Sharlab, Spain) at 37 °C. MIC assays were determined by the microdilution method using TSB broth following the method described by the Clinical and Laboratory standards Institute.[94] In brief, compounds were diluted in a 96-well microtiter plate (tissue culture-treated polystyrene; […]

Structure (SMILES)	log D7.4 [1]	cellular accumulation A2780 (A2780 cells) [nmol Cu/mg protein]	E1/2 Red1 (DMSO) vs Fc+/Fc ([2]; vs Fc+/Fc)	E1/2 Red1 (DMSO) vs NHE ([2]; vs NHE (in brackets))	E1/2 Red1 (H2O) vs Fc+/Fc ([2]; H2O, vs Fc+/Fc)	E1/2 Red1 (H2O) vs NHE ([2]; H2O, vs NHE (in brackets))	E1/2 Red1 (MeOH) vs Fc+/Fc ([2]; vs Fc+/Fc)	E1/2 Red1 (MeOH) vs NHE ([2]; vs NHE (in brackets))	RF (resistance factor) (A2780cisR cells)	IC50 (A2780cisR cells) [µM]	P. aeruginosa MIC50 [3] [mg/L]	P. aeruginosa MIC100 [3] [mg/L]
CN(C)C(=NN=Cc1ccc(CN2CCOCC2)cn1)[S][Cu][Cl] [complex 2, [Cu(L^2)Cl]]	+0.30 ± 0.01	3.9 ± 0.6	–0.80 V	–0.16 V	–0.52 V	+0.12 V	–0.54 V	+0.10 V	2.5	0.03 ± 0.003	70	200
[Cl][Cu][S]C(=NN=Cc1ccc(CN2CCOCC2)cn1)Nc1ccccc1 [complex 5, [Cu(L^5)Cl]]	+1.49 ± 0.06	4.1 ± 0.9	–0.77 V	–0.13 V			–0.48 V	+0.16 V	1.9	0.017 ± 0.002	200	450
